How the values were obtained:
barnyardgrass = assay: Test A pre-/postemergence herbicide test; format: in vivo, Echinochloa crus-galli; settings: for Barnyardgrass plant response rating: Preemergence, visual rating on 0 to 100 scale (0 no effect, 100 complete control)
Outline: (§1)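 Formulated compound (non-phytotoxic solvent, surfactant) sprayed pre- onto soil of seeded loam/sand pots or post- onto seedlings at 1–2 leaves; ~10 d greenhouse; 0–100 visual control rating versus untreated.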

pigweed = assay: Test A pre-/postemergence herbicide test; format: in vivo, Amaranthus retroflexus; settings: for Pigweed plant response rating: Preemergence, visual rating on 0 to 100 scale (0 no effect, 100 complete control)
Outline: as §1

corn [1] = assay: Test A pre-/postemergence herbicide test; format: in vivo, Zea mays; settings: for Corn plant response rating: Preemergence, visual rating on 0 to 100 scale (0 no effect, 100 complete control)
Outline: as §1

sedge, umbrella = assay: Test B flooded paddy test; format: in vivo, Cyperus difformis; settings: 250 g ai/ha, Flood; scale of 0 to 100 where 0 is no effect and 100 is complete control
Outline: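 Treatment was made at the 2-leaf stage by dosing the standing floodwater, kept 3 cm above soil level for the whole test. Greenhouse exposure lasted 13 to 15 days. Response is a visual percent rating relative to controls, where a dash indicates no test result.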

ryegrass, Italian = assay: Test C pre-/postemergence herbicide test; format: in vivo, Lolium multiflorum; settings: Preemergence; for Ryegrass, Italian plant response rating: 31 g ai/ha, scale 0 to 100, 0 is no effect and 100 is complete control
Outline: (§2)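 Compound solutions contained surfactant in a non-phytotoxic solvent. These were sprayed onto pots of loam/sand sown with seeds, and onto young plants (2 to 18 cm, 1- to 4-leaf) in sphagnum peat–vermiculite mix. Visual injury scores (0 none, 100 complete control) were recorded after 13 to 15 days.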

galium = assay: Test C pre-/postemergence herbicide test; format: in vivo, Galium aparine; settings: Preemergence; for Galium plant response rating: 31 g ai/ha
Outline: as §2

corn [2] = assay: Test C pre-/postemergence herbicide test; format: in vivo, Zea mays; settings: Preemergence; for Corn plant response rating: 31 g ai/ha
Outline: as §2

foxtail, giant = assay: Test C pre-/postemergence herbicide test; format: in vivo, Setaria faberii; settings: Preemergence; for Foxtail, Giant plant response rating: 31 g ai/ha
Outline: as §2

ragweed = assay: Test C pre-/postemergence herbicide test; format: in vivo, Ambrosia elatior; settings: Preemergence; for Ragweed plant response rating: 31 g ai/ha, scale 0 to 100, 0 is no effect and 100 is complete control
Outline: as §2

soybean = assay: Test C pre-/postemergence herbicide test; format: in vivo, Glycine max; settings: Preemergence; for Soybean plant response rating: 31 g ai/ha, scale 0 to 100, 0 is no effect and 100 is complete control
Outline: as §2

oat, wild = assay: Test C pre-/postemergence herbicide test; format: in vivo, Avena fatua; settings: Preemergence
Outline: as §2

[3] = Postemergence, 125 g ai/ha, 0 to 100 scale, 0 no effect, 100 complete control
[4] = Postemergence, 500 g ai/ha, 0 to 100 scale (0 no effect, 100 complete control)
[5] = preemergence, 500 g ai/ha, 0 to 100 scale (0 no effect, 100 complete control)
[6] = preemergence, 500 g ai/ha, 0 to 100 scale
[7] = 125 g ai/ha, scale 0 to 100 (0 no effect, 100 complete control)
[8] = scale 0 to 100 (0 no effect, 100 complete control)
[9] = 250 g ai/ha, scale 0 to 100 (0 no effect, 100 complete control)
[10] = scale 0 to 100, 0 is no effect and 100 is complete control

Row | Compound | Plant response rating, Barnyardgrass (barnyardgrass; [3]) | Plant response rating, Barnyardgrass (barnyardgrass; [4]) | Barnyardgrass plant response rating (barnyardgrass; 125 g ai/ha) | Plant response rating, Barnyardgrass (barnyardgrass; [5]) | Plant response rating, Pigweed (pigweed; [3]) | Plant response rating, Pigweed (pigweed; [4]) | Pigweed plant response rating (pigweed; 125 g ai/ha) | Plant response rating, Pigweed (pigweed; [6]) | Plant response rating, Corn (corn [1]; [3]) | Plant response rating, Corn (corn [1]; [4]) | Corn plant response rating (corn [1]; 125 g ai/ha) | Plant response rating, Corn (corn [1]; [6]) | Plant response rating, Sedge, Umbrella (sedge, umbrella) | Plant response rating, Ryegrass, Italian (ryegrass, Italian; 62 g ai/ha, scale 0 to 100) | Plant response rating, Ryegrass, Italian (ryegrass, Italian; [7]) | Plant response rating, Galium (galium; 62 g ai/ha, scale 0 to 100) | Plant response rating, Galium (galium; [7]) | Plant response rating, Galium (galium; [9]) | Plant response rating, Corn (corn [2]; 62 g ai/ha, scale 0 to 100) | Plant response rating, Corn (corn [2]; [7]) | further results
1 | O=C1NCC(c2ccc(Cl)c(F)c2)C1C(=O)Nc1ccccc1F (stereo not drawn) [Compound 53] | 30 | 80 | 80 | 90 | 0 | 0 | 0 | 0 | 0 | 0 | 0 | 0 | 20 | 0 | 0 | 0 | 0 | 70 | 20 | 20 | Galium plant response rating (galium; [8]): 0; Corn plant response rating (corn [2]; [8]): 10; Plant response rating, Corn (corn [2]; [9]): 20; Foxtail, Giant plant response rating (foxtail, giant; [8]): 40; Plant response rating, Foxtail, Giant (foxtail, giant; 62 g ai/ha, scale 0 to 100): 65; Plant response rating, Foxtail, Giant (foxtail, giant; [7]): 65; Plant response rating, Foxtail, Giant (foxtail, giant; [9]): 85; Plant response rating, Ragweed (ragweed; 62 g ai/ha, scale 0 to 100): 10; Plant response rating, Ragweed (ragweed; [7]): 10; Plant response rating, Soybean (soybean; 62 g ai/ha, scale 0 to 100): 15; Plant response rating, Soybean (soybean; [7]): 15; Plant response rating, Oat, Wild (oat, wild; 62 g ai/ha, scale 0 to 100): 0; Plant response rating, Oat, Wild (oat, wild; [7]): 0
2 | O=C1NCC(c2ccc(F)c(Cl)c2)C1C(=O)Nc1cccc(F)c1F (stereo not drawn) [Compound 59] | 70 | 90 | 80 | 90 | 0 | 40 | 0 | 0 | 0 | 30 | 0 | 0 | 60 | 0 | 0 | 5 | 30 | 85 | 10 | 10 | Galium plant response rating (galium; [8]): 0; Corn plant response rating (corn [2]; [8]): 0; Plant response rating, Corn (corn [2]; [9]): 45; Foxtail, Giant plant response rating (foxtail, giant; [8]): 50; Plant response rating, Foxtail, Giant (foxtail, giant; 62 g ai/ha, scale 0 to 100): 85; Plant response rating, Foxtail, Giant (foxtail, giant; [7]): 85; Plant response rating, Foxtail, Giant (foxtail, giant; [9]): 90; Plant response rating, Ragweed (ragweed; 62 g ai/ha, scale 0 to 100): 0; Plant response rating, Ragweed (ragweed; [7]): 0; Plant response rating, Soybean (soybean; 62 g ai/ha, scale 0 to 100): 15; Plant response rating, Soybean (soybean; [7]): 20; Plant response rating, Oat, Wild (oat, wild; 62 g ai/ha, scale 0 to 100): 0; Plant response rating, Oat, Wild (oat, wild; [7]): 0
3 | O=C1NCC(c2ccc3c(c2)OC(F)(F)O3)C1C(=O)Nc1cccc(F)c1F (stereo not drawn) [Compound 62] | 70 | 80 | 80 | 80 | 30 | 70 | 0 | 30 | 40 | 70 | 0 | 0 | 80 | 0 | 30 | 0 | 85 | 90 | 20 | 30 | Galium plant response rating (galium; [8]): 0; Corn plant response rating (corn [2]; [8]): 20; Plant response rating, Corn (corn [2]; [9]): 55; Foxtail, Giant plant response rating (foxtail, giant; [8]): 65; Plant response rating, Foxtail, Giant (foxtail, giant; 62 g ai/ha, scale 0 to 100): 80; Plant response rating, Foxtail, Giant (foxtail, giant; [7]): 85; Plant response rating, Foxtail, Giant (foxtail, giant; [9]): 85; Plant response rating, Ragweed (ragweed; 62 g ai/ha, scale 0 to 100): 15; Plant response rating, Ragweed (ragweed; [7]): 45; Plant response rating, Soybean (soybean; 62 g ai/ha, scale 0 to 100): 30; Plant response rating, Soybean (soybean; [7]): 35; Plant response rating, Oat, Wild (oat, wild; 62 g ai/ha, scale 0 to 100): 40; Plant response rating, Oat, Wild (oat, wild; [7]): 50
4 | O=C1NCC(c2cccc(Br)c2)C1C(=O)Nc1cccc(F)c1F (stereo not drawn) [Compound 64] | 60 | 80 | 80 | 90 | 0 | 30 | 0 | 0 | 30 | 40 | 20 | 20 | 40 | 0 | 0 | 0 | 0 | 0 | 0 | 55 | Galium plant response rating (galium; [8]): 0; Corn plant response rating (corn [2]; [8]): 0; Plant response rating, Corn (corn [2]; [9]): 60; Foxtail, Giant plant response rating (foxtail, giant; [8]): 50; Plant response rating, Foxtail, Giant (foxtail, giant; 62 g ai/ha, scale 0 to 100): 80; Plant response rating, Foxtail, Giant (foxtail, giant; [7]): 90; Plant response rating, Foxtail, Giant (foxtail, giant; [9]): 98; Plant response rating, Ragweed (ragweed; 62 g ai/ha, scale 0 to 100): 0; Plant response rating, Ragweed (ragweed; [7]): 30; Plant response rating, Soybean (soybean; 62 g ai/ha, scale 0 to 100): 35; Plant response rating, Soybean (soybean; [7]): 40; Plant response rating, Oat, Wild (oat, wild; 62 g ai/ha, scale 0 to 100): 10; Plant response rating, Oat, Wild (oat, wild; [7]): 10
5 | O=C1NCC(c2cccc(Br)c2)C1C(=O)Nc1ccccc1F (stereo not drawn) [Compound 66] | 80 | 80 | 80 | 90 | 0 | 0 | 0 | 0 | 20 | 80 | 20 | 20 | 50 | 0 | 0 | 0 | 0 | 0 | 0 | 10 | Ryegrass, Italian plant response rating (ryegrass, Italian): 0; Galium plant response rating (galium; [10]): 0; Corn plant response rating (corn [2]; [10]): 0; Plant response rating, Corn (corn [2]; [9]): 20; Foxtail, Giant plant response rating (foxtail, giant; [10]): 20; Plant response rating, Foxtail, Giant (foxtail, giant; 62 g ai/ha, scale 0 to 100): 75; Plant response rating, Foxtail, Giant (foxtail, giant; [7]): 85; Plant response rating, Foxtail, Giant (foxtail, giant; [9]): 95; Ragweed plant response rating (ragweed): 10; Plant response rating, Ragweed (ragweed; 62 g ai/ha, scale 0 to 100): 20; Plant response rating, Ragweed (ragweed; [7]): 25; Soybean plant response rating (soybean): 15; Plant response rating, Soybean (soybean; 62 g ai/ha, scale 0 to 100): 20; Plant response rating, Soybean (soybean; [7]): 20; Oat, Wild plant response rating (oat, wild; 31 g ai/ha, scale 0 to 100, 0 is no effect and 100 is complete control): 0; Plant response rating, Oat, Wild (oat, wild; 62 g ai/ha, scale 0 to 100): 0; Plant response rating, Oat, Wild (oat, wild; [7]): 0
6 | O=C1NCC(c2cccc(OC(F)(F)F)c2)C1C(=O)Nc1cccc(F)c1F (stereo not drawn) [Compound 68] | 70 | 80 | 80 | 90 | 40 | 60 | 0 | 30 | 20 | 90 | 0 | 0 | 70 | 0 | 0 | 5 | 90 | 90 | 25 | 25 | Ryegrass, Italian plant response rating (ryegrass, Italian): 0; Galium plant response rating (galium; [10]): 0; Corn plant response rating (corn [2]; [10]): 15; Plant response rating, Corn (corn [2]; [9]): 50; Foxtail, Giant plant response rating (foxtail, giant; [10]): 85; Plant response rating, Foxtail, Giant (foxtail, giant; 62 g ai/ha, scale 0 to 100): 90; Plant response rating, Foxtail, Giant (foxtail, giant; [7]): 90; Plant response rating, Foxtail, Giant (foxtail, giant; [9]): 95; Ragweed plant response rating (ragweed): 0; Plant response rating, Ragweed (ragweed; 62 g ai/ha, scale 0 to 100): 0; Plant response rating, Ragweed (ragweed; [7]): 0; Soybean plant response rating (soybean): 0; Plant response rating, Soybean (soybean; 62 g ai/ha, scale 0 to 100): 0; Plant response rating, Soybean (soybean; [7]): 10; Plant response rating, Oat, Wild (oat, wild; [7]): 0

Source: US10294202B2, “Pyrrolidinones as herbicides” (FMC Corporation, priority 2013, dated 2019)
